Results reported in patent publication US20230027066A1 (Urovant Sciences GmbH, priority 2019, published 2023).

System: men and women with overactive bladder
Assay: Phase 3 study of vibegron 75 mg vs placebo and tolterodine ER 4 mg, 12 weeks, efficacy (voiding and urine volume diary)
Format: in vivo, human
Settings: for Patients with at Least 75% Reduction in Total Incontinence, Adjusted (%) / Patients with at Least 75% Reduction in Total Incontinence, Adjusted n / Patients with at Least 75% Reduction in Total Incontinence, Unadjusted (%) / Patients with at Least 75% Reduction in Total Incontinence, Unadjusted n / Total Incontinence 75% responders, Active - Placebo CMH Difference: FAS-I
Method: Enrollment of patients included individuals with OAB Wet (those with UUI, the involuntary loss of urine accompanied by urgency) and OAB Dry (those without UUI). A total of 1,518 patients were randomized across 215 study sites into one of three groups for a 12-week treatment period.
The study consisted of a Screening Period (1 to 5 weeks), a single-blind Run-in Period (2 weeks), a randomized double-blind Treatment Period (12 weeks), and a Follow-up Period (4 weeks).
Tolterodine ER 4 mg was the active control. […] Between the Baseline and Week 12 Visits, patients had study assessments at Week 4 and Week 8.
The Patient Voiding Diary was used by participants (via the eDiary or paper Diary) to record the frequency of daily OAB symptoms including all micturitions, urgency, incontinence, and main reason for incontinence by selecting the respective box for each symptom occurring during the course of a given day and night.
Urine volume data were collected separately by patients using the Urine Volume component of the eDiary, or the paper Urine Volume Chart. The Urine Volume Chart is a tool used in clinical practice and clinical investigation to assess voiding functions over a 24-hour period and is regarded as a useful instrument in the investigation of patients with voiding symptoms. Urine volume may be collected during any one (1) of the 7 Diary Days prior to the visit, and it should be recorded for ˜24 hours starting from the time the patient gets up for the day and continues until the time the patient gets up for the day on the next day.
For the purpose of this study, the number of micturitions was defined as the number of times a patient has voided in the toilet as indicated on the Patient Voiding Diary. Average daily micturitions were calculated using the daily entries in the Patient Voiding Diary, which was completed over the 7 days prior to each study visit. Average daily number of micturitions were calculated as the total number of micturitions that occurred on a Complete Diary Day divided by the number of Complete Diary Days in the Patient Voiding Diary. A complete diary day required confirmation by the patient in the Patient Voiding Diary that all voids and leakages had been recorded for the diary day. Baseline was defined as the average number of micturitions occurring during the last evaluable diary prior to the Baseline Visit.
The number of UUI episodes was defined as the number of times a patient had checked “urge” as the reason for accidental urine leakage. Average daily UUI episodes at each study visit were calculated in the same manner as described above for the micturition endpoint. The UUI endpoint were analyzed using only OAB Wet patients.
For the analysis of the co-primary endpoints (change from baseline in average number of daily micturitions at Week 12 and change from baseline in average number of daily urge urinary incontinence episodes at Week 12, and placebo adjustment of each), a mixed model for repeated measure (MMRM) with restricted maximum likelihood estimation was used. This model corrects for dropout and accounts for the fact that measurements taken on the same patient over time tend to be correlated by using all available information on patients within the same covariate set to derive an estimate of the treatment effect for a dropout-free population. The analysis model for each efficacy endpoint includes terms for treatment, visit, OAB Type (Wet vs Dry), Sex (Female vs Male), Region (US vs Rest of World), baseline score, and interaction of visit by treatment.
Primary inferences were drawn from treatment differences for the changes from baseline derived from the MMRM models at Week 12. As part of secondary objectives, the treatment differences for each post baseline visit were also derived using the same MMRM model. […]

[1] = Week 12, events of Events/Censored
[2] = Week 12, subpopulation Age ≥65 years
[3] = vibegron 75 mg or tolterodine ER 4 mg
[4] = vibegron 75 mg or tolterodine ER 4 mg once daily
[5] = vibegron 75 mg or tolterodine ER 4 mg once daily, OAB Wet
[6] = vibegron 75 mg or tolterodine ER 4 mg, OAB Wet

## Cc1ccc(O)c([C@H](CCN(C(C)C)C(C)C)c2ccccc2)c1 [Tolterodine ER, tolterodine, reference compound]
Week 12, co-primary endpoint
  Micturitions, Week 12 LS Mean Change from Baseline (Placebo-Adjusted): −0.3
  UUI Episodes, Week 12 LS Mean Change from Baseline (Placebo-Adjusted): −0.4
[1]
  First 50% Reduction in Urgency Episodes, Events: 164/253
  First 100% Reduction in UUI Episodes, Events: 74/245
Week 12, secondary endpoint
  Total Incontinence Episodes, Week 12 LS Mean Change from Baseline (Placebo-Adjusted): −0.5
  Urgency Episodes, Week 12 LS Mean Change from Baseline (Placebo-Adjusted): −0.4
[2]
  Micturitions, change at Week 12, mean (SD): −1.48 (2.15)
  UUI Episodes, change at Week 12, mean (SD): −1.80 (2.41)
Week 12, subpopulation Age ≥65 years, posthoc analysis
  Daily Urgency, change at Week 12: −2.1
Week 12, ≥65 yrs
  Micturitions: Week 12 CFB Mean (descriptive statistics): −1.48
Baseline to Week 2
  Patients with at Least 75% Reduction in Total Incontinence, Adjusted (%): 16.5%
  Patients with at Least 75% Reduction in Total Incontinence, Adjusted n: 53
  Patients with at Least 75% Reduction in Total Incontinence, Unadjusted (%): 18.2%
  Patients with at Least 75% Reduction in Total Incontinence, Unadjusted n: 58
  Total Incontinence 75% responders, Active - Placebo CMH Difference: 3.6
Baseline to Week 4
  Patients with at Least 75% Reduction in Total Incontinence, Adjusted (%): 23.5%
  Patients with at Least 75% Reduction in Total Incontinence, Adjusted n: 75
  Patients with at Least 75% Reduction in Total Incontinence, Unadjusted (%): 28.2%
  Patients with at Least 75% Reduction in Total Incontinence, Unadjusted n: 90
  Total Incontinence 75% responders, Active - Placebo CMH Difference: 3.7
Baseline to Week 8
  Patients with at Least 75% Reduction in Total Incontinence, Adjusted (%): 32.5%
  Patients with at Least 75% Reduction in Total Incontinence, Adjusted n: 104
  Patients with at Least 75% Reduction in Total Incontinence, Unadjusted (%): 36.4%
  Patients with at Least 75% Reduction in Total Incontinence, Unadjusted n: 116
  Total Incontinence 75% responders, Active - Placebo CMH Difference: 5.1
Baseline to Week 12
  Patients with at Least 75% Reduction in Total Incontinence, Adjusted (%): 39.9%
  Patients with at Least 75% Reduction in Total Incontinence, Adjusted n: 127
  Patients with at Least 75% Reduction in Total Incontinence, Unadjusted (%): 45.1%
  Patients with at Least 75% Reduction in Total Incontinence, Unadjusted n: 144
  Total Incontinence 75% responders, Active - Placebo CMH Difference: 8.4
Subgroup Age <65 years, vibegron 75 mg or tolterodine ER 4 mg
  UUI, Week 12 LS mean change from baseline (placebo adjusted) (95% CI): −0.2 (−0.6 to 0.2)
Subgroup Age ≥65 years, vibegron 75 mg or tolterodine ER 4 mg
  UUI, Week 12 LS mean change from baseline (placebo adjusted) (95% CI): −0.6 (−1.1 to −0.1)
Subgroup Age ≥75 years (posthoc analysis), vibegron 75 mg or tolterodine ER 4 mg
  UUI, Week 12 LS mean change from baseline (placebo adjusted) (95% CI): −1.6 (−2.5 to −0.7)
Subgroup Females, vibegron 75 mg or tolterodine ER 4 mg
  UUI, Week 12 LS mean change from baseline (placebo adjusted) (95% CI): −0.4 (−0.7 to −0.1)
Subgroup Males, vibegron 75 mg or tolterodine ER 4 mg
  UUI, Week 12 LS mean change from baseline (placebo adjusted) (95% CI): −0.5 (−1.4 to 0.4)
Subgroup Non-White, vibegron 75 mg or tolterodine ER 4 mg
  UUI, Week 12 LS mean change from baseline (placebo adjusted) (95% CI): 0.1 (−0.6 to 0.7)
Subgroup Region: Non-US, vibegron 75 mg or tolterodine ER 4 mg
  UUI, Week 12 LS mean change from baseline (placebo adjusted) (95% CI): −0.6 (−1.5 to 0.2)
Subgroup Region: US, vibegron 75 mg or tolterodine ER 4 mg
  UUI, Week 12 LS mean change from baseline (placebo adjusted) (95% CI): −0.3 (−0.7 to 0.0)
Subgroup White, vibegron 75 mg or tolterodine ER 4 mg
  UUI, Week 12 LS mean change from baseline (placebo adjusted) (95% CI): −0.5 (−0.8 to −0.2)
[3]
  average volume voided, placebo-adjusted mean change from baseline, week 12: 13.3 mL
  placebo-adjusted mean total daily incontinence episodes, week 12: −0.5 episodes
  proportion of patients (UUI responders) with 75% or more reduction in daily UUI episodes, week 12: 42.2%
[4]
  Micturitions, active-placebo LS mean difference, Week 2: −0.3
  Micturitions, active-placebo LS mean difference, Week 4: −0.4
  Micturitions, active-placebo LS mean difference, Week 8: −0.4
  Micturitions, active-placebo LS mean difference, Week 12: −0.3
  Micturitions, average daily number, Week 2 mean: 10.40
  Micturitions, average daily number, Week 4 mean: 10.10
  Micturitions, average daily number, Week 8 mean: 9.80
  Micturitions, average daily number, Week 12 mean: 9.58
  Micturitions, change from baseline LS mean, Week 2: −0.6
  Micturitions, change from baseline LS mean, Week 4: −0.9
  Micturitions, change from baseline LS mean, Week 8: −1.2
  Micturitions, change from baseline LS mean, Week 12: −1.6
[5]
  UUI episodes, active-placebo LS mean difference, Week 2: −0.4
  UUI episodes, active-placebo LS mean difference, Week 4: −0.4
  UUI episodes, active-placebo LS mean difference, Week 8: −0.4
  UUI episodes, average daily number, Week 2 mean: 2.24
  UUI episodes, average daily number, Week 4 mean: 2.06
  UUI episodes, average daily number, Week 8 mean: 1.74
  UUI episodes, average daily number, Week 12 mean: 1.55
  UUI episodes, change from baseline LS mean, Week 2: −1.2
  UUI episodes, change from baseline LS mean, Week 4: −1.4
  UUI episodes, change from baseline LS mean, Week 8: −1.6
  UUI episodes, change from baseline LS mean, Week 12: −1.8
Vibegron 75 mg or tolterodine ER 4 mg, Cox model with sex as covariate
  Time to first 75% reduction in UUI episodes, hazard ratio compared to placebo (proportional hazards): 1.276
[6]
  Estimated incidence of subjects with 75% decrease from baseline in UUI episodes, Week 2: 18.8
  Estimated incidence of subjects with 75% decrease from baseline in UUI episodes, Week 4: 20.7
  Estimated incidence of subjects with 75% decrease from baseline in UUI episodes, Week 8: 34.3
  Estimated incidence of subjects with 75% decrease from baseline in UUI episodes, Week 12: 45.7
  First 75% reduction in UUI episodes, Events/Censored, Week 2: 60/259
  First 75% reduction in UUI episodes, Events/Censored, Week 4: 66/253
  First 75% reduction in UUI episodes, Events/Censored, Week 8: 107/212
  First 75% reduction in UUI episodes, Events/Censored, Week 12: 140/179
  Overall time to first 75% decrease in UUI episodes, 25th percentile: 4.1 weeks
  Overall time to first 75% decrease in UUI episodes, 75th percentile: 14.2 weeks
  Overall time to first 75% decrease in UUI episodes, median (95% CI): 12.1 (8.6 to 12.3) weeks
  Time to first 75% decrease in UUI episodes, Events/Censored (overall): 166/153
